From ChEMBL document CHEMBL6134923, “Novel Tricyclic Compounds as GSK3 Inhibitors” (ACS Med Chem Lett, 2025)

Columns and labels:
[1] = target: Glycogen synthase kinase-3 beta (Homo sapiens, UniProt P49841); assay: Inhibition of N-terminal GST-tagged full-length recombinant human GSK-3beta extracted from baculovirus infected Sf9 cells using biotinylated-phosphorylated glycogen synthase incubated for 100 mins in presence of ATP by TR-FRET assay
[2] = target: Glycogen synthase kinase-3 alpha (Homo sapiens, UniProt P49840); assay: Inhibition of N-terminal GST-tagged full-length recombinant human GSK-3alpha extracted from baculovirus infected Sf9 cells using biotinylated-phosphorylated glycogen synthase incubated for 100 mins in presence of ATP by TR-FRET assay
Chain of Glycogen synthase kinase-3 alpha (P49840 whole entry): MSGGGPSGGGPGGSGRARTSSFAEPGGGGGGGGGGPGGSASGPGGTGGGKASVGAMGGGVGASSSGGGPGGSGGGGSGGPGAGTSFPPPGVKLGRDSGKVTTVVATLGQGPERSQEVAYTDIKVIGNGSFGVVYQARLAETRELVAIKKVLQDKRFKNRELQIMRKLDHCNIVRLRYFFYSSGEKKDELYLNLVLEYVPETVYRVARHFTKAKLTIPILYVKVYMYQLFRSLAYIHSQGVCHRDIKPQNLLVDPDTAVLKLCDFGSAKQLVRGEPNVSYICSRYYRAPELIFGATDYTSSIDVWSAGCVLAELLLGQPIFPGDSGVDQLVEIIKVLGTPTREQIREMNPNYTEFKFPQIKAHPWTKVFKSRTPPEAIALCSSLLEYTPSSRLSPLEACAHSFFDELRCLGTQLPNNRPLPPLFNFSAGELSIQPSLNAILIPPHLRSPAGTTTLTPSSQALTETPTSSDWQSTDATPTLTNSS

Chain of Glycogen synthase kinase-3 beta (P49841 whole entry): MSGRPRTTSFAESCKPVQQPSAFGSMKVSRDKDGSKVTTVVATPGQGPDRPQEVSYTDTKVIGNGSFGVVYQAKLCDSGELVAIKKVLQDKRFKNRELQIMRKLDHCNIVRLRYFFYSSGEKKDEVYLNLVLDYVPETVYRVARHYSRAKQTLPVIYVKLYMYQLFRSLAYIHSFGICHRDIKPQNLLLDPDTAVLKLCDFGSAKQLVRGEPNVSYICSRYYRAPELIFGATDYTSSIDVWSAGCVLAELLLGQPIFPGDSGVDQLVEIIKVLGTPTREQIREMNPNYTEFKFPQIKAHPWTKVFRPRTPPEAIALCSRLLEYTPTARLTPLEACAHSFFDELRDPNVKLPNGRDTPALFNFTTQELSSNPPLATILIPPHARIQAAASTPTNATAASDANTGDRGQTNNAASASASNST

Compound	IC50 [1] [nM]	IC50 [2] [nM]
CC[C@]1(c2cccc(OC(C)C)c2)C2=C(CC(C)(C)CC2=O)Nc2n[nH]c(C(F)(F)F)c21	≤ 100	≤ 100
CCC1(c2cccc(N3CC4CCC(C4)C3)c2)C2=C(CC(C)(C)CC2=O)Nc2n[nH]cc21 (configuration not stated)	> 1000	> 100
CC[C@@]1(c2cccc(-c3cncn3C)c2)C2=C(CC(C)(C)NC2=O)Nc2n[nH]c(C(F)(F)F)c21	≤ 100	≤ 100
CC[C@@]1(c2cccc(C(F)(F)F)c2)C2=C(Nc3n[nH]cc31)[C@H](F)C(C)(C)CC2=O	≤ 100	≤ 100

Now from value to compound:

IC50 [1] [nM]	IC50 [2] [nM]	Compound
≤ 100	≤ 100	CC[C@@]1(c2cccc(S(=O)(=O)C3CC3)c2)C2=C(CC(C)(C)CC2=O)Nc2n[nH]c(C(F)(F)F)c21
> 100	> 100	CC[C@@]1(c2cccc(-c3cc(C)ncc3C)c2)C2=C(CC(C)(C)CC2=O)Nc2n[nH]c(C(F)(F)F)c21
